# Reference: BindingDB's records for patent US20250313563 (The Broad Institute, 2025)
# Several values for one entry are separate records, joined by “and”; a condition that tells them apart may be missing. Equal values may be shown once.
# Assays:
# [1] = molecular target: Glycogen synthase kinase-3 alpha (Homo sapiens, UniProt P49840); assay: TR-FRET Assay
# Method: (§1) The assay was performed in a white, 384 well, low volume, flat bottom plate (Grenier). […] The kinase activity was quenched with 2 μL of 250 mM EDTA. A 10 μL volume of 40 nM Strepavidin-d2, 2 nM Tb2+-pSer641 antibody in TR-FRET Detection Buffer (Invitrogen) was then added.
# [2] = molecular target: Glycogen synthase kinase-3 beta (Homo sapiens, UniProt P49841); assay: TR-FRET Assay
# Method: as §1
# Glycogen synthase kinase-3 alpha, sequence (P49840 whole entry): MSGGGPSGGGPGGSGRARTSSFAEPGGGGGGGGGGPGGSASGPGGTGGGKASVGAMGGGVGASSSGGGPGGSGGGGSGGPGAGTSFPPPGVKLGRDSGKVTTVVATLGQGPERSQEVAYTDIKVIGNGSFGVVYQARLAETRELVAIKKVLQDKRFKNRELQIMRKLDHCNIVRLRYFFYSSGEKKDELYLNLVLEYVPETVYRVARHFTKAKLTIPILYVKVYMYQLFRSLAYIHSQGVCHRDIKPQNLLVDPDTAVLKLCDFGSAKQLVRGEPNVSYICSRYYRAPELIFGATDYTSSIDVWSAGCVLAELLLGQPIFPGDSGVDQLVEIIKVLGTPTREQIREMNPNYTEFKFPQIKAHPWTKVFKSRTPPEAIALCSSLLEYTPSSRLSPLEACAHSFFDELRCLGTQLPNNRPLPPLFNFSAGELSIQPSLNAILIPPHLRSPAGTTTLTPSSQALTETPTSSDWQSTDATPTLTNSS
# Glycogen synthase kinase-3 beta, sequence (P49841 whole entry): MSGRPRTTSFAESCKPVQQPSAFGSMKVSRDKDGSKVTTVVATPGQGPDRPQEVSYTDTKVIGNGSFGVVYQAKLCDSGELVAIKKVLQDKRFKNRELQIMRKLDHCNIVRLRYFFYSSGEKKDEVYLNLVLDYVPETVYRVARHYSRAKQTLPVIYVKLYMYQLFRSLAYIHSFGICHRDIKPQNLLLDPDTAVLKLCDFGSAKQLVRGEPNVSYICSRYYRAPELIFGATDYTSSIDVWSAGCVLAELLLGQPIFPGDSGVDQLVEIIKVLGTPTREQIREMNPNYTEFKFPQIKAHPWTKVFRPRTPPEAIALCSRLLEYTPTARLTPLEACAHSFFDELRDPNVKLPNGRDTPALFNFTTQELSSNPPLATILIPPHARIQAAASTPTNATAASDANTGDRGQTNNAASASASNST
Compound,IC50 [1],IC50 [2] [nM]
"CN1C[C@]2(C3=C(CC(C)(C)CC3=O)NC3N=NC(CC(C)(C)C)=C32)c2ccccc21 (stereo partly drawn) [US20250313563, Compound 125978]",1000 to 5000 nM,100 to 1000
"CN(C)S(=O)(=O)c1cccc([C@]2(C)C3=C(CC(C)(C)CC3=O)NC3=C2C(CC(C)(C)C)N=N3)c1 (stereo partly drawn) [US20250313563, Compound 126012]",1000 to 5000 nM,100 to 1000
"Cn1cncc1-c1cccc([C@]2(C)C3=C(CC(C)(C)CC3=O)NC3=C2C(CC(C)(C)C)N=N3)c1 (stereo partly drawn) [US20250313563, Compound 126014]",100 to 1000 nM,100 to 1000
"Cn1cncc1-c1cccc([C@@]2(C)C3=C(CC(C)(C)CC3=O)NC3=C2C(CC(C)(C)C)N=N3)c1 (stereo partly drawn) [US20250313563, Compound 126015]",> 5000 nM,> 5000
"C[S@+]([O-])c1cccc([C@]2(C)C3=C(CC(C)(C)CC3=O)NC3=C2C(CC(C)(C)C)N=N3)c1 (stereo partly drawn) [US20250313563, Compound 126190]",1000 to 5000 nM,100 to 1000
"C[S@@+]([O-])c1cccc([C@]2(C)C3=C(CC(C)(C)CC3=O)NC3=C2C(CC(C)(C)C)N=N3)c1 (stereo partly drawn) [US20250313563, Compound 126191B:]",> 5000 nM,100 to 1000
"Cn1ccc(-c2cccc([C@]3(C)C4=C(CC(C)(C)CC4=O)NC4=C3C(CC(C)(C)C)N=N4)c2)n1 (stereo partly drawn) [US20250313563, Compound 126366]",1000 to 5000 nM,100 to 1000
"Cn1cc(-c2cccc([C@@]3(C)C4=C(CC(C)(C)CC4=O)NC4=C3C(CC(C)(C)C)N=N4)c2)cn1 (stereo partly drawn) [US20250313563, Compound 126367]",> 5000 nM,> 5000
"Cn1cc(-c2cccc([C@]3(C)C4=C(CC(C)(C)CC4=O)NC4=C3C(CC(C)(C)C)N=N4)c2)cn1 (stereo partly drawn) [US20250313563, Compound 126393]",1000 to 5000 nM,100 to 1000
"CC(C)(C)CC1N=NC2=C1[C@](C)(c1cccc(S(=O)(=O)C(F)(F)F)c1)C1=C(CC(C)(C)CC1=O)N2 (stereo partly drawn) [US20250313563, Compound 126395]",1000 to 5000 nM,100 to 1000
"CC(C)(C)CC1N=NC2=C1[C@@](C)(c1cccc(S(=O)(=O)C(F)(F)F)c1)C1=C(CC(C)(C)CC1=O)N2 (stereo partly drawn) [US20250313563, Compound 126396]",> 5000 nM,> 5000
"CC1(C)CC(=O)C2=C(C1)NC1N=NC(C3CC(F)(F)C3)=C1[C@@]21COc2ccccc21 (stereo partly drawn) [US20250313563, Compound 127430]",1000 to 5000 nM,100 to 1000
"CCC1(c2ccc(F)cc2)C2=C(N=NC2)NC2=C1C(=O)CC(C)(C)C2 (stereo not drawn) [US20250313563, Compound 772965]",1000 to 5000 nM,> 5000
"CC(C)(C)CC1=C2C(N=N1)NC1=C(C(=O)CC(C)(C)C1)[C@]21CCc2cc(F)ccc21 (stereo partly drawn) [US20250313563, Compound 782424]",100 to 1000 nM,< 100
"CC(C)(C)CC1=C2C(N=N1)NC1=C(C(=O)CC(C)(C)C1)[C@@]21CCc2cc(F)ccc21 (stereo partly drawn) [US20250313563, Compound 782425]",100 to 1000 nM,100 to 1000
"CC(C)(C)CC1=C2C(N=N1)NC1=C(C(=O)CC(C)(C)C1)C21CCc2ccc(F)cc21 (stereo not drawn) [US20250313563, Compound 784440]",100 to 1000 nM,< 100
"CC1(C)CC(=O)C2=C(C1)NC1=C(CN=N1)C2(C)c1cc(F)cc(F)c1 (stereo not drawn) [US20250313563, Compound 785735]",100 to 1000 nM,> 5000
"Cc1cccc(C2(C)C3=C(N=NC3)NC3=C2C(=O)CC(C)(C)C3)c1 (stereo not drawn) [US20250313563, Compound 785736]",< 100 nM,100 to 1000

Compound,IC50 [1],IC50 [2] [nM]
"CCC1(c2ccccc2)C2=C(N=NC2)NC2=C1C(=O)CC1(CCCC1)C2 (stereo not drawn) [US20250313563, Compound 785737]",< 100 nM,100 to 1000
"CCC1(c2cccc(C)c2)C2=CN=NC2NC2=C1C(=O)CC(C)(C)C2 (stereo not drawn) [US20250313563, Compound 785738]",< 100 nM,100 to 1000
"CCC1(c2ccc(C)cc2)C2=C(N=NC2)NC2=C1C(=O)CC(C)(C)C2 (stereo not drawn) [US20250313563, Compound 785739]",100 to 1000 nM,> 5000
"CCC1(c2cccc(C(F)(F)F)c2)C2=CN=NC2NC2=C1C(=O)CC(C)(C)C2 (stereo not drawn) [US20250313563, Compound 785762]",< 100 nM,< 100
"CCC1(CC)C2=C(CC(C)(C)CC2=O)NC2=C1C(C)N=N2 (stereo not drawn) [US20250313563, Compound 786061]",100 to 1000 nM,> 1670
"CC1(C)CC(=O)C2=C(C1)NC1=C(CN=N1)C2(C)C [US20250313563, Compound 786065]",1000 to 5000 nM,> 1670
"CC1N=NC2=C1C1(CCCC1)C1=C(CC(C)(C)CC1=O)N2 (stereo not drawn) [US20250313563, Compound 786072]",< 100 nM,< 100
"CC[C@]1(c2ccccc2)C2=CN=NC2NC2=C1C(=O)C[C@H](C)C2 (stereo partly drawn) [US20250313563, Compound 789010]",100 to 1000 nM,100 to 1000
"CC[C@@]1(c2ccccc2)C2=CN=NC2NC2=C1C(=O)C[C@@H](C)C2 (stereo partly drawn) [US20250313563, Compound 789013]",100 to 1000 nM,> 5000
"CC1(C)CC(=O)C2=C(C1)NC1=C(CN=N1)C2(C)c1cccc(Br)c1 (stereo not drawn) [US20250313563, Compound 789277]",< 100 nM,100 to 1000
"CCC1(c2cccc(Br)c2)C2=C(N=NC2)NC2=C1C(=O)CC(C)(C)C2 (stereo not drawn) [US20250313563, Compound 789312]",< 100 nM,100 to 1000
"CCC1(c2ccccc2)C2=C(N=NC2)NC2=C1C(=O)CC1(CC1)C2 (stereo not drawn) [US20250313563, Compound 789330]",100 to 1000 nM,1000 to 5000
"C[C@H]1CC(=O)C2=C(C1)NC1=C(CN=N1)[C@]2(C)c1ccccc1 [US20250313563, Compound 789332]",100 to 1000 nM,100 to 1000
"C[C@H]1CC(=O)C2=C(C1)NC1=C(CN=N1)[C@@]2(C)c1ccccc1 [US20250313563, Compound 789334]",100 to 1000 nM,1000 to 5000
"CCC1(c2cccc(Cl)c2)C2=C(CC(C)(C)CC2=O)NC2N=NC(C)=C21 (stereo not drawn) [US20250313563, Compound 789336]",< 100 nM,100 to 1000
"CC1(C)CC(=O)C2=C(C1)NC1=C(CN=N1)C2(C)c1cc(Cl)cc(Cl)c1 (stereo not drawn) [US20250313563, Compound 789337]",100 to 1000 nM,1000 to 5000
"CC[C@]1(c2ccc(C)cc2)C2=CN=NC2NC2=C1C(=O)CC(C)(C)C2 (stereo partly drawn) [US20250313563, Compound 789457]",100 to 1000 nM,1000 to 5000
"CC[C@@]1(c2ccc(C)cc2)C2=CN=NC2NC2=C1C(=O)CC(C)(C)C2 (stereo partly drawn) [US20250313563, Compound 789458]",> 5000 nM,> 5000

# Second part, the molecule after the results:
IC50 [1],IC50 [2] [nM],Compound
< 100 nM,< 100,"CCC1(c2ccccc2)C2=C(CC(C)(C)CC2=O)NC2N=NC(Br)=C21 (stereo not drawn) [US20250313563, Compound 789459]"
100 to 1000 nM,100 to 1000,"CC1(c2ccccc2)C2=C(N=NC2)NC2=C1C(=O)CC1(CCCC1)C2 (stereo not drawn) [US20250313563, Compound 789460]"
1000 to 5000 nM,> 5000,"CC1(C)CC(=O)C2=C(C1)NC1=C(CN=N1)C2(c1ccccc1)c1ccccc1 [US20250313563, Compound 789461]"
1000 to 5000 nM,> 5000,"CCC1(c2ccccc2)C2=C(N=NC2)NC2=C1C(=O)CCC2 (stereo not drawn) [US20250313563, Compound 789497]"
1000 to 5000 nM,100 to 1000,"CC(C)(C)CC1=C2C(N=N1)NC1=C(C(=O)CC(C)(C)C1)[C@]21CCc2ccc(F)cc21 (stereo partly drawn) [US20250313563, Compound 789504]"
100 to 1000 nM,< 100,"CC(C)(C)CC1=C2C(N=N1)NC1=C(C(=O)CC(C)(C)C1)[C@@]21CCc2ccc(F)cc21 (stereo partly drawn) [US20250313563, Compound 789505]"
100 to 1000 nM,100 to 1000,"CC1(C)CC(=O)C2=C(C1)NC1=C(CN=N1)C2(C)c1cccc(-c2ccccc2)c1 (stereo not drawn) [US20250313563, Compound 789513]"
100 to 1000 nM,100 to 1000,"CCC1(c2cccc(-c3ccccc3)c2)C2=CN=NC2NC2=C1C(=O)CC(C)(C)C2 (stereo not drawn) [US20250313563, Compound 789514]"
100 to 1000 nM,< 100,"CC(C)(C)CC1=C2C(N=N1)NC1=C(C(=O)CC(C)(C)C1)C21CCc2c(F)cccc21 (stereo not drawn) [US20250313563, Compound 789524]"
< 100 nM and 1000 to 5000 nM,100 to 1000,"CC[C@]1(c2cccc(C)c2)C2=CN=NC2NC2=C1C(=O)CC(C)(C)C2 (stereo partly drawn) [US20250313563, Compound 789560]"
1000 to 5000 nM,> 5000,"CC[C@@]1(c2cccc(C)c2)C2=CN=NC2NC2=C1C(=O)CC(C)(C)C2 (stereo partly drawn) [US20250313563, Compound 789561]"
< 100 nM,100 to 1000,"CC[C@]1(c2ccccc2)C2=CN=NC2NC2=C1C(=O)CC1(CCCC1)C2 (stereo partly drawn) [US20250313563, Compound 789562]"
< 100 nM,< 100,"CCC1(c2cccc(Cl)c2)C2=C(CC(C)(C)CC2=O)NC2N=NC(Br)=C21 (stereo not drawn) [US20250313563, Compound 789564]"
< 100 nM,100 to 1000,"CCC1(c2cccc(C)c2)C2=C(N=NC2)NC2=C1C(=O)CC1(CCCC1)C2 (stereo not drawn) [US20250313563, Compound 789565]"
< 100 nM,< 100,"CCC1(c2cccc(Cl)c2)C2=C(CC(C)(C)CC2=O)NC2N=NC(C(F)(F)F)=C21 (stereo not drawn) [US20250313563, Compound 789566]"
100 to 1000 nM,100 to 1000,"CC(C)(C)CC1=C2C(N=N1)NC1=C(C(=O)CC(C)(C)C1)C21CCc2cccc(F)c21 (stereo not drawn) [US20250313563, Compound 789583]"
100 to 1000 nM,1000 to 5000,"CCC1(c2cccc(C(F)(F)F)c2)C2=C(CC(C)(C)CC2=O)NC2N=NC(C(F)(F)F)=C21 (stereo not drawn) [US20250313563, Compound 789584]"
< 100 nM,< 100,"CC[C@]1(c2cccc(Cl)c2)C2=C(CC(C)(C)CC2=O)NC2N=NC(C)=C21 (stereo partly drawn) [US20250313563, Compound 790612]"
